“Also recorded” adds a separate entry of the source.
Tests used:
[1] = molecular target: T1, HO-2 (rat brain) (Rattus norvegicus, UniProt P23711); assay: HO enzymatic activity, rat brain microsomal fraction (CO formation from methemalbumin); assay type: biochemical; conditions: CO formation from methemalbumin, mean ± SD of replicate experiments, read-out: IC50 HO-2 (rat brain)/μM)
T1 construct: brain microsomes were used as a source of HO-2; from tissue; host or cells: brain microsomal fraction of adult male Sprague-Dawley rats
T1 sequence (P23711 1-315): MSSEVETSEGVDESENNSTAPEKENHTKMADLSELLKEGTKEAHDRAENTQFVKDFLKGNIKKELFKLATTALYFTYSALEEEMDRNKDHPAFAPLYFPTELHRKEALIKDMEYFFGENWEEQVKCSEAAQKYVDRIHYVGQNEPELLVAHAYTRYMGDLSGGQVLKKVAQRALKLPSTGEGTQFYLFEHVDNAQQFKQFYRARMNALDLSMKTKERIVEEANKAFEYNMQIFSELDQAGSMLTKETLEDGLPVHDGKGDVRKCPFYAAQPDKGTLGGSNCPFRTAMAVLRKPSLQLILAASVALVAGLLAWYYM

[2] = test system: human pancreatic tumor cells; assay: Cell proliferation assay ([3H] thymidine incorporation), pancreatic tumor cells; assay type: cell-based; conditions: 6.5 μM, 18 h
[3] = test system: B16-BL6 cells (mouse melanoma); assay: Metastatic B16-BL6 melanoma model, lung surface metastases; assay type: in vivo; conditions: vehicle control: 101
Description: B16-BL6 cells (mouse melanoma). B16-BL6 metastatic variant was derived from B16-F10. This cell variant was obtained from Dr. Linda D. Williams, Dept. of Cancer Biology, MD Anderson Cancer Center, Texas, USA. […] Cells were maintained at 37° C. in a humidified atmosphere (5% CO2, 95% air).
Control groups received the vehicle alone.

[4] = test system: human metastatic prostate cancer PC-3M cells; assay: Orthotopic PC-3M prostate cancer model in SCID mice, primary tumor and metastases; assay type: in vivo, male SCID; conditions: 32-mouse study
Text: PC-3 & PC-3M (human prostate carcinoma). The PC-3 human prostate cancer cell line was originally obtained from the American Type Culture Collection (Rockville, Md.). The PC-3M cell line was kindly provided by Dr. Issac (MD Anderson Cancer Center). This cell variant was derived from a liver metastasis produced by the parental PC-3 cells growing in the spleen of a nude mouse [Pettaway C A, Pathak S, Greene G. et al. Selection of highly metastatic variants of different human prostate carcinomas utilizing orthotopic implantation in nude mice. Clin Cancer Res 1996; 2:1627-36].
Cell cultures were maintained in 5% CO2/95% air at 37° C. SKMEL-V (human melanoma cells). SKMEL-V cells were derived from SKMEL-24 cells (ATCC) by overexpression of mouse VEGF.
Exponentially growing cells were harvested using a brief exposure to 0.25% trypsins:0.1% EDTA solution (w/v).
Mice were anesthesized with isofluorane given by inhalation and placed in a supine position. Betadine and 75% Ethanol was used to clean the skin of abdomen. A low midline incision was made and the prostate was exposed. Fifty microliters of HBSS containing 1×10^6 cells was injected into a lateral lobe of the prostate. […]
Primary tumors in the prostate were excised, measured, and weighed. […]
The in vivo data was analyzed using the Mann-Whitney U test.

| Structure (SMILES) | IC50 [1] [µM] | 3H-thymidine incorporation, non-transfected cells ([2]; compared to untreated cells, hydrochloride) | 3H-thymidine incorporation, hHO-1 transfected cells ([2]; hHO-1 transfected human pancreatic tumor cells) | macroscopic nodules in the lungs (average) [3] [nodules] | formation of macroscopic lymph node metastases [4] |
| --- | --- | --- | --- | --- | --- |
| Cl.FC[C@@H]1CO[C@@](CCc2ccc(Cl)cc2)(Cn2ccnc2)O1 [QC-47, (2R,4S)-1-{2-[2-(4-Chlorophenyl)ethyl]-4-fluoromethyl-[1,3]dioxolan-2-ylmethyl}-1H-imidazole hydrochloride] | > 100 |  |  |  |  |
| Brc1ccc(CCC2(Cn3ccnc3)OCCO2)cc1.Cl [QC-56, 1-((2-(2-(4-Bromophenyl)ethyl)-1,3-dioxolan-2-yl)methyl)-1H-imidazole hydrochloride] |  | significantly attenuated ^3H-thymidine incorporation; also recorded: marked reduction in the rate of cellular proliferation | significantly attenuated the effects of hHO-1 transfection on ^3H-thymidine incorporation | 51 | complete inhibition |

Reference: patent US20120020915A1, “Compounds and Methods for Treating Cancer and Diseases of the Central Nervous System” (QUEENS UNIVERSITY AT KINGSTON, priority 2007, published 2012)
